# Source: patent US12721820B2, “Method of manufacturing peptide nanoparticles” (DuPage Medical Technology, Inc., priority 2020, dated 2026)
# Residues, ends and D or L forms follow the SMILES beside them. *: point of attachment. Myristoyl = CCCCCCCCCCCCCC(=O)*
# Assays:
# [1] = Rat 5-day infusion pharmacokinetic study; conditions: for AUC(0-t) / Tmax / clearance: plasma; for Css: steady-state plasma concentration during continuous IV infusion; for λz: terminal elimination rate constant
# [2] = Dissolution and storage stability of lyophilized powder; type: physicochemical
# Experimental: The M3mP6 HLPN thus generated achieves a high M3mP6 peptide loading reaching >80% of total nanoparticle (mol/mol) (when such percentage of peptide was incorporated into during the process) and a high peptide concentration of >10 mM in injectable suspension. As analyzed by dynamic light scattering (DLS), the vast majority (99.8-100%) of these lipid-stabilized, PEG-coated M3mP6 HLPN have a particle size ranging between 6 nm to 25 nm (in different preparations) with occasional appearance of very small populations (0-0.2%) with larger diameters (~50-500 nm) (FIGS. 5A-5F).
# [3] = test system: tail bleeding time in mice; assay: Tail bleeding time; type: in vivo; conditions: same concentrations that inhibit occlusive thrombosis
# in vivo = conditions: male, rat, iv
# [4] = test system: laser-induced cremaster arteriolar thrombosis; assay: Laser-induced cremaster arteriolar thrombosis model; type: in vivo, mice; conditions: laser-induced mouse cremaster arterial thrombosis model; for intravascular coagulation (fibrin clot formation / fibrin deposition): site of vascular injury
# Excerpt: This example illustrates the comparative effect of M3mP6 HLPN (prepared substantially as described in Example 1) and cangrelor on intracvascular coagulation using laser-induced cremaster arteriolar thrombosis model in mice.
# It was recently shown that outside-in signaling plays an important role in not only platelet thrombus formation but also intravascular coagulation under flow shear, an important aspect of thrombosis. […] Thus, we tested the effect of M3mP6 HLPN generated by vortex-mixing-lyophilization on platelet thrombus formation and intravascular coagulation in comparison with cangrelor using the laser-induced cremaster arterial thrombosis model.
smiles,measurement,setting,value
"CCCCCCCCCCCCCC(=O)N[C@@H](Cc1ccccc1)C(=O)N[C@@H](CCC(=O)O)C(=O)N[C@@H](CCC(=O)O)C(=O)N[C@@H](CCC(=O)O)C(=O)N[C@@H](CCCNC(=N)N)C(=O)N[C@@H](CC(C)C)C(=O)O [M3mP6, Myr-FEEERL (SEQ ID NO: 8)] (Myristoyl-FEEERL-OH; C-terminus assumed)",Vd,"[1]; female, in vivo, iv",0.2 L/kg
same,AUC(0-t),"[1]; female, intravenous",17600 µg·h/mL
same,Tmax,"[1]; female, intravenous",4.8 min
same,clearance,"[1]; female, iv, CL CLAUC, clearance estimated from AUC0-∞",0.7 mL/min/kg
same,clearance,"[1]; female, iv, CL CLcss, clearance estimated from Css",0.8 mL/min/kg
same,Css,[1]; female,131.117 µg/mL
same,t1/2-λz,"[1]; female, terminal elimination half-life",3.1 h
same,λz,[1]; female,0.223 h⁻¹
same,Vλz,"[1]; male, distribution volume",0.46 L/kg
same,AUC(0-t),"[1]; male, intravenous",9490 µg·h/mL
same,Tmax,"[1]; male, intravenous",4.8 min
same,clearance,"[1]; male, intravenous, CL CLAUC, clearance estimated from AUC0-∞",1.4 mL/min/kg
same,clearance,"[1]; male, iv, CL CLcss, clearance estimated from Css",1.3 mL/min/kg
same,Css,[1]; male,77.621 µg/mL
same,λz,[1]; male,0.177 h⁻¹
same,storage stability,[2]; lyophilized powder at room temperature (22° C.),at least 2 weeks
same,storage stability (similar DLS profile and pharmacological effect),[2]; lyophilized powder stored at −20° C.,more than 18 months
same,tail bleeding time,[3],without affecting bleeding
same,half-life,in vivo,234 min
CSCCNc1nc(SCCC(F)(F)F)nc2c1ncn2[C@@H]1O[C@H](COP(=O)(O)OP(=O)(O)C(Cl)(Cl)P(=O)(O)O)[C@@H](O)[C@H]1O [cangrelor],platelet thrombus formation,[4],similarly potent effects
same,intravascular coagulation (fibrin clot formation / fibrin deposition),[4],moderate effect
same,intravascular coagulation (fibrin clot formation / fibrin deposition),[4]; listed as Cangrelor,only partially inhibited
same,platelet thrombus formation,[4]; listed as Cangrelor,similarly inhibited
